# In PubChem BioAssay AID2060499 (Molecular Pharmacology Branch, DTP, NCI, 2025):
# pIC50: −log10 of the molar value.
# Test system: 777334-354-R2-J4-PDC tumor spheroids with HUVEC/MSC, viability
# Experiment: Anticancer human tumor 777334-354-R2-J4-PDC patient-derived pancreatic adenocarcinoma cell line growth inhibition [GQUAD]
# Details: for pIC50: curve of first compound; for viability, T/C: stronger effect = lower value
# Outline: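 Multi-cell-type spheroids of tumor cells with HUVEC and mesenchymal stem cells, treated with drug combinations. Concentrations descend in half-log steps from near clinical Cmax, or from 10 microM where Cmax is unknown; viability read-out.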
# [1] = second compound 0.0316 µM, first compound 0.0316 µM
# [2] = second compound 0.0316 µM, first compound 0.1 µM
# [3] = second compound 0.0316 µM, first compound 0.316 µM
# [4] = second compound 0.0316 µM, first compound 1 µM
# [5] = second compound 0.0316 µM, first compound 3.16 µM
# [6] = second compound 0.0316 µM, first compound 10 µM
# [7] = second compound 0.1 µM, first compound 0.0316 µM
# [8] = second compound 0.1 µM, first compound 0.1 µM
# [9] = second compound 0.1 µM, first compound 0.316 µM
# [10] = second compound 0.1 µM, first compound 1 µM
# [11] = second compound 0.1 µM, first compound 3.16 µM
# [12] = second compound 0.1 µM, first compound 10 µM
# [13] = second compound 0.316 µM, first compound 0.0316 µM
# [14] = second compound 0.316 µM, first compound 0.1 µM
# [15] = second compound 0.316 µM, first compound 0.316 µM
# [16] = second compound 0.316 µM, first compound 1 µM
# [17] = second compound 0.316 µM, first compound 3.16 µM
# [18] = second compound 0.316 µM, first compound 10 µM
# [19] = second compound 1 µM, first compound 0.0316 µM
# [20] = second compound 1 µM, first compound 0.1 µM
# [21] = second compound 1 µM, first compound 0.316 µM
# [22] = second compound 1 µM, first compound 1 µM
# [23] = second compound 1 µM, first compound 3.16 µM
# [24] = second compound 1 µM, first compound 10 µM
# [25] = second compound 3.16 µM, first compound 0.0316 µM
# [26] = second compound 3.16 µM, first compound 0.1 µM
# [27] = second compound 3.16 µM, first compound 0.316 µM
# [28] = second compound 3.16 µM, first compound 1 µM
# [29] = second compound 3.16 µM, first compound 3.16 µM
# [30] = second compound 3.16 µM, first compound 10 µM
# [31] = second compound 10 µM, first compound 0.0316 µM
# [32] = second compound 10 µM, first compound 0.1 µM
# [33] = second compound 10 µM, first compound 0.316 µM
# [34] = second compound 10 µM, first compound 1 µM
# [35] = second compound 10 µM, first compound 3.16 µM
# [36] = second compound 10 µM, first compound 10 µM
# 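Also: spheroids exposed to compounds for 7 days before readout.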
smiles,measurement,setting,value
C=CCn1c(=O)c2cnc(Nc3ccc(N4CCN(C)CC4)cc3)nc2n1-c1cccc(C(C)(C)O)n1 + Cc1[nH]c2ccc(F)cc2c1-c1nc2c3cccnc3c3ncccc3c2[nH]1,pIC50,second compound 0.0316 µM,6.14
same,pIC50,second compound 0.1 µM,6.06
same,pIC50,second compound 0.316 µM,6.13
same,pIC50,second compound 1 µM,6.15
same,pIC50,second compound 3.16 µM,7.50
same,pIC50,second compound 10 µM,> 7.50
same,"viability, T/C",[1],100%
same,"viability, T/C",[2],106%
same,"viability, T/C",[3],79.5%
same,"viability, T/C",[4],39.5%
same,"viability, T/C",[5],30.6%
same,"viability, T/C",[6],34.6%
same,"viability, T/C",[7],87.5%
same,"viability, T/C",[8],92.9%
same,"viability, T/C",[9],78%
same,"viability, T/C",[10],46.6%
same,"viability, T/C",[11],33.1%
same,"viability, T/C",[12],34.5%
same,"viability, T/C",[13],94.3%
same,"viability, T/C",[14],99.8%
same,"viability, T/C",[15],82.8%
same,"viability, T/C",[16],38.3%
same,"viability, T/C",[17],36.7%
same,"viability, T/C",[18],30.9%
same,"viability, T/C",[19],75.3%
same,"viability, T/C",[20],77.5%
same,"viability, T/C",[21],73.1%
same,"viability, T/C",[22],40.1%
same,"viability, T/C",[23],34%
same,"viability, T/C",[24],28.1%
same,"viability, T/C",[25],50.4%
same,"viability, T/C",[26],36.9%
same,"viability, T/C",[27],50.8%
same,"viability, T/C",[28],12.8%
same,"viability, T/C",[29],14%
same,"viability, T/C",[30],14.2%
same,"viability, T/C",[31],31.7%
same,"viability, T/C",[32],27.5%
same,"viability, T/C",[33],24.7%
same,"viability, T/C",[34],14.8%
same,"viability, T/C",[35],14.1%
same,"viability, T/C",[36],11.2%
CC(C)(O)C1CCC(Nc2ccc3ncc(-c4cccc(C(F)(F)F)c4)n3n2)CC1 (stereo not drawn) + Cc1[nH]c2ccc(F)cc2c1-c1nc2c3cccnc3c3ncccc3c2[nH]1,pIC50,second compound 0.0316 µM,5.82
same,pIC50,second compound 0.1 µM,5.88
same,pIC50,second compound 0.316 µM,5.97
same,pIC50,second compound 1 µM,6.06
same,pIC50,second compound 3.16 µM,> 7.50
same,pIC50,second compound 10 µM,> 7.50
same,"viability, T/C",[1],82.8%
same,"viability, T/C",[2],97.5%
same,"viability, T/C",[3],87.3%
same,"viability, T/C",[4],59.9%
same,"viability, T/C",[5],30.1%
same,"viability, T/C",[6],33.9%
same,"viability, T/C",[7],96.7%
same,"viability, T/C",[8],94.5%
same,"viability, T/C",[9],84.8%
same,"viability, T/C",[10],55%
same,"viability, T/C",[11],35.1%
same,"viability, T/C",[12],32.4%
same,"viability, T/C",[13],96.7%
same,"viability, T/C",[14],87.2%
same,"viability, T/C",[15],87%
same,"viability, T/C",[16],51.2%
same,"viability, T/C",[17],30.3%
same,"viability, T/C",[18],32.7%
same,"viability, T/C",[19],86.7%
same,"viability, T/C",[20],68.2%
same,"viability, T/C",[21],82.4%
same,"viability, T/C",[22],46.1%
same,"viability, T/C",[23],29.7%
same,"viability, T/C",[24],24.6%
same,"viability, T/C",[25],35.1%
same,"viability, T/C",[26],28.4%
same,"viability, T/C",[27],23.2%
same,"viability, T/C",[28],12.9%
same,"viability, T/C",[29],8.53%
same,"viability, T/C",[30],10.5%
same,"viability, T/C",[31],26.7%
same,"viability, T/C",[32],27.6%
same,"viability, T/C",[33],18%
same,"viability, T/C",[34],12.3%
same,"viability, T/C",[35],7.51%
same,"viability, T/C",[36],7.22%
COc1ncnc(C2CC2)c1-c1ncc2cnn(Cc3ccc(-c4nc(C(F)(F)F)cn4C(C)C)cc3)c2n1 + Cc1[nH]c2ccc(F)cc2c1-c1nc2c3cccnc3c3ncccc3c2[nH]1,pIC50,second compound 0.0316 µM,< 5.00
same,pIC50,second compound 0.1 µM,< 5.00
same,pIC50,second compound 0.316 µM,< 5.00
same,pIC50,second compound 1 µM,< 5.00
same,pIC50,second compound 3.16 µM,6.90
same,pIC50,second compound 10 µM,> 7.50
same,"viability, T/C",[1],104%
same,"viability, T/C",[2],96.9%
same,"viability, T/C",[3],103%
same,"viability, T/C",[4],91.4%
same,"viability, T/C",[5],83%
same,"viability, T/C",[6],112%
same,"viability, T/C",[7],102%
same,"viability, T/C",[8],89.4%
same,"viability, T/C",[9],100%
same,"viability, T/C",[10],92.1%
same,"viability, T/C",[11],89%
same,"viability, T/C",[12],105%
same,"viability, T/C",[13],93%
same,"viability, T/C",[14],85%
same,"viability, T/C",[15],96.7%
same,"viability, T/C",[16],85.4%
same,"viability, T/C",[17],93.1%
same,"viability, T/C",[18],110%
same,"viability, T/C",[19],81.9%
same,"viability, T/C",[20],88.3%
same,"viability, T/C",[21],90.5%
same,"viability, T/C",[22],79.6%
same,"viability, T/C",[23],91%
same,"viability, T/C",[24],79.3%
same,"viability, T/C",[25],56.1%
same,"viability, T/C",[26],58.8%
same,"viability, T/C",[27],37.6%
same,"viability, T/C",[28],43.5%
same,"viability, T/C",[29],49.3%
same,"viability, T/C",[30],49.7%
same,"viability, T/C",[31],39.7%
same,"viability, T/C",[32],35.3%
same,"viability, T/C",[33],38.2%
same,"viability, T/C",[34],18.8%
same,"viability, T/C",[35],33.3%
same,"viability, T/C",[36],35.7%
Cc1[nH]c2ccccc2c1CCNCc1ccc(/C=C/C(=O)NO)cc1 + Cc1[nH]c2ccc(F)cc2c1-c1nc2c3cccnc3c3ncccc3c2[nH]1,pIC50,second compound 0.0316 µM,6.72
same,pIC50,second compound 0.1 µM,6.67
same,pIC50,second compound 0.316 µM,6.68
same,pIC50,second compound 1 µM,6.75
same,pIC50,second compound 3.16 µM,> 9.00
same,pIC50,second compound 10 µM,> 9.00
same,"viability, T/C","second compound 0.0316 µM, first compound 0.000999 µM",114%
same,"viability, T/C","second compound 0.0316 µM, first compound 0.00316 µM",91.3%
same,"viability, T/C","second compound 0.0316 µM, first compound 0.00999 µM",103%
same,"viability, T/C",[1],78.2%
same,"viability, T/C","second compound 0.0316 µM, first compound 0.0999 µM",74.5%
same,"viability, T/C",[3],33.8%
same,"viability, T/C","second compound 0.1 µM, first compound 0.000999 µM",103%
same,"viability, T/C","second compound 0.1 µM, first compound 0.00316 µM",94%
same,"viability, T/C","second compound 0.1 µM, first compound 0.00999 µM",102%
same,"viability, T/C",[7],90.6%
same,"viability, T/C","second compound 0.1 µM, first compound 0.0999 µM",73.1%
same,"viability, T/C",[9],38.5%
same,"viability, T/C","second compound 0.316 µM, first compound 0.000999 µM",90.2%
same,"viability, T/C","second compound 0.316 µM, first compound 0.00316 µM",92.2%
same,"viability, T/C","second compound 0.316 µM, first compound 0.00999 µM",109%
same,"viability, T/C",[13],92.7%
same,"viability, T/C","second compound 0.316 µM, first compound 0.0999 µM",79%
same,"viability, T/C",[15],33.1%
same,"viability, T/C","second compound 1 µM, first compound 0.000999 µM",97.9%
same,"viability, T/C","second compound 1 µM, first compound 0.00316 µM",80.3%
same,"viability, T/C","second compound 1 µM, first compound 0.00999 µM",78.4%
same,"viability, T/C",[19],91.2%
same,"viability, T/C","second compound 1 µM, first compound 0.0999 µM",70.4%
same,"viability, T/C",[21],29.2%
same,"viability, T/C","second compound 3.16 µM, first compound 0.000999 µM",46%
same,"viability, T/C","second compound 3.16 µM, first compound 0.00316 µM",37.7%
same,"viability, T/C","second compound 3.16 µM, first compound 0.00999 µM",41%
same,"viability, T/C",[25],49.3%
same,"viability, T/C","second compound 3.16 µM, first compound 0.0999 µM",52.5%
same,"viability, T/C",[27],38.7%
same,"viability, T/C","second compound 10 µM, first compound 0.000999 µM",46.3%
same,"viability, T/C","second compound 10 µM, first compound 0.00316 µM",24.8%
same,"viability, T/C","second compound 10 µM, first compound 0.00999 µM",38.9%
same,"viability, T/C",[31],35%
same,"viability, T/C","second compound 10 µM, first compound 0.0999 µM",41.6%
same,"viability, T/C",[33],32.1%
